Data from the supplement of paper PMC10307832.

Legend:
Experiment in all cases: relative viability (nuclei count vs DMSO), 5 days (fraction); higher = more cells survive
R406 + Trametinib = compound: COc1cc(Nc2ncc(F)c(Nc3ccc4c(n3)NC(=O)C(C)(C)O4)n2)cc(OC)c1OC [R406] + CC(=O)Nc1cccc(-n2c(=O)n(C3CC3)c(=O)c3c(Nc4ccc(I)cc4F)n(C)c(=O)c(C)c32)c1 [Trametinib] (partner 0.02 µM)
Method in brief: (§1)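 Relative viability divides the nuclei count in treated wells by that in vehicle wells. Lung cancer cell lines were seeded in 1536-well plates, dosed by pin tool the next day, and fixed and stained after 5 days in one step with final 0.05% Triton X-100, 1% formaldehyde and 1 ug/ml Hoechst. Dosing was a single drug or a fixed anchor-drug dose plus five library-drug doses (not always all listed) in √10 steps, and values are medians of duplicate plates imaged at 4×.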

R406 + Palbociclib = compound: COc1cc(Nc2ncc(F)c(Nc3ccc4c(n3)NC(=O)C(C)(C)O4)n2)cc(OC)c1OC [R406] + CC(=O)c1c(C)c2cnc(Nc3ccc(N4CCNCC4)cn3)nc2n(C2CCCC2)c1=O [Palbociclib] (partner 0.5 µM)
Method in brief: as §1

R406 + Navitoclax = compound: COc1cc(Nc2ncc(F)c(Nc3ccc4c(n3)NC(=O)C(C)(C)O4)n2)cc(OC)c1OC [R406] + CC1(C)CCC(c2ccc(Cl)cc2)=C(CN2CCN(c3ccc(C(=O)NS(=O)(=O)c4ccc(N[C@H](CCN5CCOCC5)CSc5ccccc5)c(S(=O)(=O)C(F)(F)F)c4)cc3)CC2)C1 [Navitoclax] (partner 0.5 µM)
Method in brief: as §1

R406 + Linsitinib = compound: COc1cc(Nc2ncc(F)c(Nc3ccc4c(n3)NC(=O)C(C)(C)O4)n2)cc(OC)c1OC [R406] + C[C@]1(O)C[C@@H](c2nc(-c3ccc4ccc(-c5ccccc5)nc4c3)c3c(N)nccn32)C1 [Linsitinib] (partner 1 µM)
Method in brief: as §1

Row | Cell Line | relative viability (R406 + Trametinib; first compound 0.08 µM) | relative viability (R406 + Trametinib; first compound 0.253 µM) | relative viability (R406 + Trametinib; first compound 0.8 µM) | relative viability (R406 + Trametinib; first compound 2.53 µM) | relative viability (R406 + Trametinib; first compound 8 µM) | relative viability (R406 + Palbociclib; first compound 0.08 µM) | relative viability (R406 + Palbociclib; first compound 0.253 µM) | relative viability (R406 + Palbociclib; first compound 0.8 µM) | relative viability (R406 + Palbociclib; first compound 2.53 µM) | relative viability (R406 + Palbociclib; first compound 8 µM) | relative viability (R406 + Navitoclax; first compound 0.08 µM) | relative viability (R406 + Navitoclax; first compound 0.253 µM) | relative viability (R406 + Navitoclax; first compound 0.8 µM) | relative viability (R406 + Navitoclax; first compound 2.53 µM) | relative viability (R406 + Navitoclax; first compound 8 µM) | relative viability (R406 + Linsitinib; first compound 0.08 µM) | relative viability (R406 + Linsitinib; first compound 0.253 µM) | relative viability (R406 + Linsitinib; first compound 0.8 µM) | relative viability (R406 + Linsitinib; first compound 2.53 µM) | relative viability (R406 + Linsitinib; first compound 8 µM)
1 | NCI-H647 | 0.534 | 0.359 | 0.6 | 0.239 | 0.0884 | 0.387 | 0.37 | 0.426 | 0.261 | 0.0695 | 1.04 | 1.29 | 1.18 | 0.562 | 0.467 | 0.813 | 1.21 | 1.15 | 0.763 | 0.159
2 | A-427 | 0.755 | 0.745 | 0.857 | 0.62 | 0.541 | 0.516 | 0.596 | 0.575 | 0.477 | 0.446 | 0.912 | 1.02 | 0.981 | 0.572 | 0.78 | 1.09 | 1.19 | 1.17 | 1.07 | 0.964
3 | EMC-BAC-2 | 0.907 | 0.956 | 0.804 | 1.06 | 0.917 | 0.518 | 0.538 | 0.508 | 0.44 | 0.378 | 1.11 | 1.38 | 1.31 | 1.12 | 0.917 | 0.817 | 0.87 | 0.822 | 0.707 | 0.53
4 | NCI-H460 | 0.0847 | 0.4 | 0.258 | 0.0114 | 0.0382 | 0.157 | 0.2 | 0.183 | 0.0283 | 0.0792 | 1.16 | 1.35 | 1.25 | – | 0.476 | 0.824 | 0.8 | 1.17 | – | 0.0646
5 | LCLC-103H | 0.66 | 0.675 | 0.672 | 0.691 | 0.604 | 0.45 | 0.507 | 0.529 | 0.46 | 0.319 | – | – | – | – | – | 1.04 | 1.2 | 0.976 | 1.14 | 0.792
6 | HCC-827 | 0.564 | 0.578 | 0.517 | 0.399 | 0.383 | 0.508 | 0.538 | 0.517 | 0.422 | 0.373 | 1.04 | 0.952 | 0.949 | 0.932 | 0.489 | 0.975 | 0.929 | 0.937 | 0.886 | 0.477
7 | NCI-H1355 | 0.456 | 0.45 | 0.406 | 0.384 | 0.327 | 0.404 | 0.366 | 0.416 | 0.329 | 0.278 | 1.05 | 0.94 | 1.08 | 0.542 | 0.648 | 0.83 | 0.83 | 0.94 | 0.588 | 0.596
8 | NCI-H1734 | 0.637 | 0.685 | 0.715 | 0.575 | 0.383 | 0.359 | 0.372 | 0.376 | 0.346 | 0.243 | 0.789 | 0.982 | 1.13 | 0.813 | 0.607 | 0.912 | 0.859 | 0.949 | 0.818 | 0.554
9 | HARA | 0.745 | 0.629 | 0.878 | 0.794 | 0.13 | 0.334 | 0.198 | 0.223 | 0.264 | 0.132 | 1.05 | 1.14 | 1.12 | 1.19 | 0.453 | 0.772 | 0.991 | 1.04 | 0.819 | 0.288
10 | HCC-15 | 0.392 | 0.385 | 0.406 | 0.415 | 0.331 | 0.818 | 0.827 | 0.801 | 0.728 | 0.594 | 0.732 | 0.77 | 0.781 | – | 0.509 | 0.856 | 0.914 | 1.01 | – | 0.776
11 | LCLC-97TM1 | 0.218 | 0.23 | 0.226 | 0.174 | 0.194 | 0.34 | 0.218 | 0.273 | 0.185 | 0.217 | 0.375 | 0.511 | 0.519 | 0.254 | 0.462 | 0.192 | 0.191 | 0.218 | 0.172 | 0.182
12 | SK-LU-1 | 0.535 | 0.531 | 0.55 | 0.157 | 0.195 | 0.392 | 0.423 | 0.367 | 0.258 | 0.191 | 0.483 | 1.2 | 0.725 | 0.385 | 0.145 | 1.03 | 1.07 | 1.07 | 0.595 | 0.292
13 | NCI-H1651 | 0.75 | 0.821 | 0.843 | 0.852 | 0.831 | 0.496 | 0.578 | 0.531 | 0.511 | 0.527 | 1.08 | 1.29 | 0.961 | 0.769 | 0.463 | 0.862 | 1.1 | 1.06 | 0.829 | 0.5
14 | NCI-H1793 | 0.448 | 0.537 | 0.411 | 0.422 | 0.16 | 0.352 | 0.309 | 0.253 | 0.28 | 0.153 | 0.336 | 0.442 | 0.398 | 0.206 | 0.17 | 0.703 | 1.01 | 1.2 | 0.57 | 0.376
